Measured values reported in patent US20230346718A1, “METHOD OF TREATING, AMELIORATING AND/OR […]” (YALE UNIVERSITY, priority 2022, published 2023).
Entries after “also recorded” stand apart in the source; their conditions may differ.

Key:
[1] = molecular target: serotonin 5-HT2A receptors (Homo sapiens, UniProt P28223); conditions: literature; cited from earlier work
[2] = tested on: healthy controls (HC) and MDD participants; experiment: Cardiovascular safety: blood pressure and heart rate after intravenous DMT; format: in vivo, human
Protocol: (§1) Blood pressure was measured at baseline and 5, 10, 15, 20, 30, 45, 60, and 120 minutes after drug administration. Heart rate and pulse oximetry were measured continuously. Subjective drug effects were measured 60 min before, as well as 30 and 120 min after drug administration.

[3] = tested on: healthy controls (HC) and MDD participants; experiment: Drug desirability / reinforcement and abuse liability measures; format: in vivo, human; conditions: for monetized value of drug effects (scale from 0-100 dollars): mean (SD)
Protocol: VAS measures of tolerability, willingness to pay for the experience, and likelihood to use DMT were analyzed similarly. […] HAM-D for each dose was compared to baseline using paired t-tests. […] For 23-item VAS psychedelic effects, multiple comparison correction was performed using false discovery rate (FDR) correction for all measures in order to increase statistical power and minimize […] errors (Benjamini and Hochberg, Journal of the Royal Statistical Society. Series B (Methodological) Vol. 57, No. 1 (1995), pp. 289-300). For PSI effects, Bonferroni correction was utilized.

[4] = Serum DMT levels after intravenous DMT hemifumarate; format: in vivo, human; conditions: IV 0.1 and 0.3 mg/kg; 30 and 60 min after administration
Protocol: FIGS. 19A-19B depict serum DMT levels in healthy control (FIG. 19A) and depression subjects (FIG. 19B) with intravenous administration of DMT hemifumarate, in accordance with some embodiments. Y-axis: serum DMT levels (ng/dl); X-axis: 60 min before DMT administration; and 30 and 60 min after DMT administration. […] Solid line (0.1 mg/kg) and dotted line (0.3 mg/kg).
Referring to FIGS. 19A-19B, the present study further reports for the first-time dose-related serum DMT levels in MDD subjects who received 0.1 and […] of IV DMT. The findings in healthy controls are mostly consistent with other studies and PK models (Callaway et al., J Ethnopharmacol. 1999 June; 65(3):243-56; Gallimore and Strassman, Front. Pharmacol., 14 Jul. 2016). […] Given the increased rigor of the assay for DMT utilized in this study, it is unlikely that the variability observed in MDD subjects is spurious. It may be important to note that while DMT's acute effects had mostly resolved by +30 min time point, it is conceivable that peripheral concentration may differ from the central site of action.

healthy volunteers = conditions: literature, cited from earlier work
[5] = tested on: healthy controls (HC) and MDD participants; experiment: In session VAS anxiety and depression; format: in vivo, human; conditions: for Peak change in VAS depression: MDD participants only; for Peak change in VAS depression / Peak change in VAS anxiety scale: mean (SD); for Peak change in VAS anxiety scale: all participants
Protocol: (§2) Both the VAS Psychedelic effects, and PSI were measured before dose administration, shortly after resolution of effects, and again near time of discharge. Subjects were instructed to retroactively rate the effects during the peak effects, given that they might not be able to accurately assess and report effects while immersed in the peak effects. […] In addition to day-after dosing follow up, subjects were contacted 1, 2, and 12 weeks after completion of the last dosing session to follow up on safety and wellbeing.

[6] = tested on: healthy controls (HC) and MDD participants; experiment: Adverse events of the dosing sessions; format: in vivo, human
Source text: Given the intensity and brevity of DMT effects, participants were allowed a mostly uninterrupted experience with psychiatrists utilizing a non-directive and supportive approach. Participants were asked how they were feeling at the same time points as the physiological recordings; no psychotherapy was provided. Rescue medications for psychological distress (lorazepam and risperidone) and hypertension (labetalol) were available. Prior to discharge, a field sobriety test and mini-mental status examination were conducted to confirm return to baseline.

[7] = tested on: healthy controls (HC) and MDD participants; experiment: Psychedelic effects, 23-item Psychedelic Effects Visual Analog Scale; format: in vivo, human; conditions: for Peak change in VAS psychedelic composite score: mean (SD)
Protocol: as §1
Both the VAS Psychedelic effects, and PSI were measured before dose administration, shortly after resolution of effects, and again near time of discharge. Subjects were instructed to retroactively rate the effects during the peak effects, given that they might not be able to accurately assess and report effects while immersed in the peak effects.

[8] = tested on: healthy controls (HC) and MDD participants; experiment: Psychotomimetic States Inventory (PSI); format: in vivo, human
Protocol: as §2

[9] = tested on: healthy controls (HC) and MDD participants; experiment: Overall tolerability of test day, visual analog scale; conditions: for overall tolerability (0=intolerable to 100=well-tolerated): mean (SD)

Chain of serotonin 5-HT2A receptors (P28223 whole entry): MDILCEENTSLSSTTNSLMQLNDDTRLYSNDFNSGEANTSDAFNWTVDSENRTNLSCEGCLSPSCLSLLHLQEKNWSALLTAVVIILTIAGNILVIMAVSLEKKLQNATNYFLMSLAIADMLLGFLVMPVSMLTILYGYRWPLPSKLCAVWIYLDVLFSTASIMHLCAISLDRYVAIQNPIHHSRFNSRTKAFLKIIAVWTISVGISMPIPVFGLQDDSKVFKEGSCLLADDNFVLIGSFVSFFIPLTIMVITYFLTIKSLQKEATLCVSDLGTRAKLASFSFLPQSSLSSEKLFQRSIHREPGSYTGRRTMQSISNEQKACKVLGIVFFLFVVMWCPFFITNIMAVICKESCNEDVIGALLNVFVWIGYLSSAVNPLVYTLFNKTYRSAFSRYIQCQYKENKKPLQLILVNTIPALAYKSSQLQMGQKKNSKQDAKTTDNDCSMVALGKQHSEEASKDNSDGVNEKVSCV

Structure (SMILES): CN(C)CCc1c[nH]c2ccccc12 [DMT hemifumarate, N,N-dimethyltryptamine hemifumarate]
- water solubility (in words) (Water solubility): water-soluble

Structure (SMILES): CN(C)CCc1c[nH]c2ccccc12 [DMT, N,N-dimethyltryptamine]
- water solubility (in words) (Water solubility): not water soluble
- activity at serotonin 5-HT2A receptors (in words) [1]: agonist activity
- effect on systolic and diastolic blood pressure, and heart rate ([2]; 0.1 and 0.3 mg/kg IV, no significant dose or dose-time effects): increased
- time point with significant increases in heart rate relative to baseline ([2]; post-hoc analyses): +5 minute
- monetized value of drug effects (scale from 0-100 dollars) ([3]; 0.1 mg/kg session): 25.56 (SD 29.07) dollars
- monetized value of drug effects (scale from 0-100 dollars) ([3]; 0.3 mg/kg session): 24.78 (SD 33.36) dollars
- willingness to use DMT, difference between doses ([3]; 95% CI −16.74 to 13.62, p=0.90): −1.56
- monetized value of drug effects, difference between doses ([3]; 95% CI −32.38 to 33.94, p=0.89): −0.78
- abuse potential (in words) ([3]; intravenous): low abuse potential
- serum DMT levels in MDD subjects compared with healthy controls (in words) [4]: can have higher serum DMT levels; also recorded: greater variability
- tolerability in healthy controls (in words) (healthy volunteers; doses ranging from 0.05-0.4 mg/kg): well-tolerated
- time to emergence of effects after intravenous administration (healthy volunteers; healthy volunteers): ≤ 2 min
- dose above which psychedelic effects emerge (healthy volunteers; intravenous, healthy volunteers): higher than 0.2 mg/kg
- time to full resolution of effects (healthy volunteers; intravenous): about 30 minutes
- Peak change in VAS anxiety, difference between doses ([5]; 95% CI −14.30 to 68.53, p=0.26): 27.11
- Peak change in VAS depression, difference between doses ([5]; 95% CI −41.47 to 57.47, p=0.92): 8.00
- Peak change in VAS depression ([5]; 0.1 mg/kg session): 6.83 (SD 28.94)
- Peak change in VAS depression ([5]; 0.3 mg/kg session): 14.83 (SD 37.79)
- Peak change in VAS anxiety scale ([5]; 0.1 mg/kg session): 2.56 (SD 31.8)
- Peak change in VAS anxiety scale ([5]; 0.3 mg/kg session): 29.67 (SD 39.96)
- oxygen saturation during the serious adverse event ([6]; 0.3 mg/kg IV, measured continuously): 100%
- severity of adverse events (in words) ([6]; 0.1 and 0.3 mg/kg IV): mostly mild
- clinically relevant psychotic symptoms ([6]; all dosing sessions): None of the participants
- number of serious adverse events ([6]; asymptomatic bradycardia and hypotension in a MDD participant after 0.3 mg/kg): one
- symptoms in one healthy subject with anticipatory anxiety ([6]; following 0.1 mg/kg, symptoms lasted 10 minutes): lightheadedness, and pallor
- heart rate in the serious adverse event ([6]; person, 5 minutes after 0.3 mg/kg IV, dropped from 54): 42 beats per minute
- blood pressure in the serious adverse event ([6]; person, 5 minutes after 0.3 mg/kg IV, dropped from 108/60): 71/42
- Peak change in VAS psychedelic composite score ([7]; 0.1 mg/kg session): 13.16 (SD 11.91)
- Peak change in VAS psychedelic composite score ([7]; 0.3 mg/kg dose): 55.83 (SD 23.89)
- Hedge's g, VAS psychedelic composite score dose difference ([7]; 0.3 vs 0.1 mg/kg): 2.2
- Peak change in VAS psychedelic composite score, difference between doses ([7]; 95% CI 33.30 to 52.03, p<0.0001): 42.67
- number of the 23 VAS psychedelic items with significant dose-related differences ([7]; FDR correction, q=0.05): 16
- duration of acute effects / resolution after injection ([7]; IV): 20 to 30 min
- time by which acute psychedelic effects completely subsided ([7]; IV push): ≤ 30 min
- time of peak of acute psychedelic effects after dosing ([7]; IV push): 5 to 10 min
- Mean peak change in Psychotomimetic States Inventory (PSI) scale total score ([8]; 0.1 mg/kg session, mean (SD)): 7.33 (SD 7.62)
- Mean peak change in Psychotomimetic States Inventory (PSI) scale total score ([8]; 0.3 mg/kg session): 31.67 (16.57)
- Hedge's g, PSI total score dose difference ([8]; 0.3 vs 0.1 mg/kg): 1.89
- PSI total score peak change, difference between doses ([8]; 95% CI 12.74 to 35.94, p=0.001): 24.33
- overall tolerability (0=intolerable to 100=well-tolerated) ([9]; 0.1 mg/kg IV dose session): 89.80 (SD 12.95)
- overall tolerability (0=intolerable to 100=well-tolerated) ([9]; 0.3 mg/kg IV dose session): 71.11 (SD 24.52)
- overall tolerability, difference between dose sessions ([9]; 0.3 vs 0.1 mg/kg, 95% CI −32.81 to −2.75, p=0.026): −17.78
- tolerability (in words) ([9]; IV, HC and MDD participants): tolerated by both HC (n=3) and MDD participants (n=7); also recorded: well tolerated by both MDD patients and HC individuals
